# Test results: patent publication US9416111B2, “Substituted diazine and triazine spleen tyrosine kinease (Syk) inhibitors” (Merck Sharp & Dohme Corp., priority 2012, dated 2016)
# pIC50: −log10 of the molar value. “And” between values parts separate entries of the source, which are not always exact repeats. Identical values can stand only once.
# Target: T1, recombinant human GST-SYK (Homo sapiens, UniProt P43405)
# T1 construct: purchased Carna Biosciences 08-176
# Assay: Homogeneous Time-Resolved Fluorescence (HTRF) assay for the recombinant human Syk enzyme
# Format: biochemical
# Conditions: GST-hSYK 5 pM, ATP 25 μM, IC50 rated in classes, read-out: rhSYK Activity
# Experimental: Homogeneous Time-Resolved Fluorescence (HTRF) Assay for the Recombinant Human Syk Enzyme
# A recombinant GST-hSYK fusion protein was used to measure potency of compounds to inhibit human Syk activity. The recombinant human GST-SYK (Carna Biosciences #08-176) (5 pM final concentration) was incubated with various concentrations of the inhibitor diluted in DMSO (0.1% final concentration) for 10 minutes at room temperature in 15 mM Tris-HCl (pH 7.5), 0.01% tween 20, 2 mM DTT in 384 well plate format. To initiate the reaction the biotinylated substrate peptide (250 nM final concentration) that contains the phosphorylation site for Syk was added with magnesium (5 mM final concentration) and ATP (25 μM final concentration). Final volume of the reaction was 10 μL. Phosphorylation of the peptide was allowed to proceed for 45′ at room temperature. To quench the reaction and detect the phosphorylated product, 2 nM of a Europium-anti-phosphotyrosine antibody (Perkin Elmer #AD0161) and 70 nM SA-APC (Perkin-Elmer #CR130-100) were added together in 15 mM Tris pH 7.5, 40 mM EDTA, 0.01% tween 20. Final volume of the quenching solution was 10 μL. The resulting HTRF signal was measured after 30 minutes on an EnVision (Perkin-Elmer) reader using a time-resolved fluorescence protocol.
row,pIC50,Structure (SMILES)
1,> 7.00,"Cc1cc(Nc2nccc(C(F)(F)F)n2)cc(-c2cnc(NCC(C)(C)O)nc2)c1 [Example 2.47, 2-methyl-1-{[5-(3-methyl-5-{[4-(trifluoromethyl)pyrimidin-2-yl]amino}phenyl)pyrimidin-2-yl]amino}propan-2-ol]"
2,> 7.00,"Cc1cc(Nc2nccc(C(F)(F)F)n2)cc(-c2cnc(NCCS(C)(=O)=O)nc2)c1 [Example 2.48, N-[3-methyl-5-(2-{[2-(methylsulfonyl)ethyl]amino}pyrimidin-5-yl)phenyl]-4-(trifluoromethyl)pyrimidin-2-amine]"
3,6.00 to 7.00,"COCC1CCCCN1c1ncc(-c2cc(C)cc(Nc3nccc(C(F)(F)F)n3)c2)cn1 (centres unmarked) [Example 2.49, N-(3-{2-[2-(methoxymethyl)piperidin-1-yl]pyrimidin-5-yl}-5-methylphenyl)-4-(trifluoromethyl)pyrimidin-2-amine]"
4,> 7.00,"Cc1cc(Nc2nccc(C(F)(F)F)n2)cc(-c2cnc(N3CC(O)C3)nc2)c1 [Example 2.50, 1-[5-(3-methyl-5-{[4-(trifluoromethyl)pyrimidin-2-yl]amino}phenyl)pyrimidin-2-yl]azetidin-3-ol]"
5,> 7.00,"CCC1C(=O)NCCN1c1ncc(-c2cc(C)cc(Nc3nccc(C(F)(F)F)n3)c2)cn1 (centres unmarked) [Example 2.51, 3-ethyl-4-[5-(3-methyl-5-{[4-(trifluoromethyl)pyrimidin-2-yl]amino}phenyl)pyrimidin-2-yl]piperazin-2-one]"
6,> 7.00,"Cc1cc(Nc2nccc(C(F)(F)F)n2)cc(-c2cnc(NCc3cncn3C)nc2)c1 [Example 2.52, N-[3-methyl-5-(2-{[(1-methyl-1H-imidazol-5-yl)methyl]amino}pyrimidin-5-yl)phenyl]-4-(trifluoromethyl)pyrimidin-2-amine]"
7,6.00 to 7.00,"CCCOC1CCCN(c2ncc(-c3cc(C)cc(Nc4nccc(C(F)(F)F)n4)c3)cn2)C1 (centres unmarked) [Example 2.53, N-{3-methyl-5-[2-(3-propoxypiperidin-1-yl)pyrimidin-5-yl]phenyl}-4-(trifluoromethyl)pyrimidin-2-amine]"
8,> 7.00,"Cc1cc(Nc2nccc(C(F)(F)F)n2)cc(-c2cnc(N3CCC3C(=O)O)nc2)c1 (centres unmarked) [Example 2.54, 1-[5-(3-methyl-5-{[4-(trifluoromethyl)pyrimidin-2-yl]amino}phenyl)pyrimidin-2-yl]azetidine-2-carboxylic acid]"
9,> 7.00,"CCN1CCN(c2ncc(-c3cc(C)cc(Nc4nccc(C(F)(F)F)n4)c3)cn2)CC1 [Example 2.55, N-{3-[2-(4-ethylpiperazin-1-yl)pyrimidin-5-yl]-5-methylphenyl}-4-{trifluoromethyl)pyrimidin-2-amine]"
10,> 7.00,"Cc1cc(Nc2nccc(C(F)(F)F)n2)cc(-c2cnc(N3CCCC[C@H]3C(=O)O)nc2)c1 [Example 2.56, (2S)-1-[5-(3-methyl-5-{[4-(trifluoromethyl)pyrimidin-2-yl]amino}phenyl)pyrimidin-2-yl]piperidine-2-carboxylic acid]"
11,> 7.00,"Cc1cc(Nc2nccc(C(F)(F)F)n2)cc(-c2cnc(NC(C)(C)CO)nc2)c1 [Example 2.57, 2-methyl-2-{[5-(3-methyl-5-{[4-(trifluoromethyl)pyrimidin-2-yl]amino}phenyl)pyrimidin-2-yl]amino}propan-1-ol]"
12,> 7.00,"Cc1cc(Nc2nccc(C(F)(F)F)n2)cc(-c2cnc(NC(C)CO)nc2)c1 (centres unmarked) [Example 2.58, 2-{[5-(3-methyl-5-{[4-(trifluoromethyl)pyrimidin-2-yl]amino}phenyl)pyrimidin-2-yl]amino}propan-1-ol]"
13,> 7.00,"CCC(CO)Nc1ncc(-c2cc(C)cc(Nc3nccc(C(F)(F)F)n3)c2)cn1 (centres unmarked) [Example 2.59, 2-{[5-(3-methyl-5-{[4-(trifluoromethyl)pyrimidin-2-yl]amino}phenyl)pyrimidin-2-yl]amino}butan-1-ol]"
14,> 7.00,"Cc1cc(Nc2nccc(C(F)(F)F)n2)cc(-c2cnc(NCC(C)O)nc2)c1 (centres unmarked) [Example 2.60, 1-{[5-(3-methyl-5-{[4-(trifluoromethyl)pyrimidin-2-yl]amino}phenyl)pyrimidin-2-yl]amino}propan-2-ol]"
15,> 7.00,Cc1cc(Nc2nccc(C(F)(F)F)n2)cc(-c2cnc(NCC(O)CC(=O)O)nc2)c1 (centres unmarked) [Example 2.61]
16,> 7.00,"Cc1cc(Nc2nccc(C(F)(F)F)n2)cc(-c2cnc(NCCO)nc2)c1 [Example 2.62, 2-{[5-(3-methyl-5-{[4-(trifluoromethyl)pyrimidin-2-yl]amino}phenyl)pyrimidin-2-yl]amino}ethanol]"

row,pIC50,Structure (SMILES)
1,> 7.00,"Cc1cc(Nc2nccc(C(F)(F)F)n2)cc(-c2cnc(NCc3cn(C)cn3)nc2)c1 [Example 2.63, N-[3-methyl-5-(2-{[(1-methyl-1H-imidazol-4-yl)methyl]amino}pyrimidin-5-yl)phenyl]-4-(trifluoromethyl)pyrimidin-2-amine]"
2,> 7.00,"Cc1cc(Nc2nccc(C(F)(F)F)n2)cc(-c2cnc(NCC(=O)N(C)C)nc2)c1 [Example 2.64, N,N-dimethyl-N~2~-[5-(3-methyl-5-{[4-(trifluoromethyl)pyrimidin-2-yl]amino}phenyl)pyrimidin-2-yl]glycinamide]"
3,6.00 to 7.00,"Cc1cc(Nc2nccc(C(F)(F)F)n2)cc(-c2cnc(N3CCN(CC(F)(F)F)CC3)nc2)c1 [Example 2.65, N-(3-methyl-5-{2-[4-(2,2,2-trifluoroethyl)piperazin-1-yl]pyrimidin-5-yl}phenyl)-4-(trifluoromethyl)pyrimidin-2-amine]"
4,6.00 to 7.00,"COCC1CCN(c2ncc(-c3cc(C)cc(Nc4nccc(C(F)(F)F)n4)c3)cn2)C1 (centres unmarked) [Example 2.66, N-(3-{2-[3-(methoxymethyl)pyrrolidin-1-yl]pyrimidin-5-yl}-5-methylphenyl)-4-(trifluoromethyl)pyrimidin-2-amine]"
5,> 7.00,"Cc1cc(Nc2nccc(C(F)(F)F)n2)cc(-c2cnc(N3CCN(C)C(=O)C3C)nc2)c1 (centres unmarked) [Example 2.67, 1,3-dimethyl-4-[5-(3-methyl-5-{[4-(trifluoromethyl)pyrimidin-2-yl]amino}phenyl)pyrimidin-2-yl]piperazin-2-one]"
6,> 7.00,"CCCN1CCCN(c2ncc(-c3cc(C)cc(Nc4nccc(C(F)(F)F)n4)c3)cn2)CC1 [Example 2.68, N-{3-methyl-5-[2-(4-propyl-1,4-diazepan-1-yl)pyrimidin-5-yl]phenyl}-4-(trifluoromethyl)pyrimidin-2-amine]"
7,> 7.00,"CNC(=O)CCNc1ncc(-c2cc(C)cc(Nc3nccc(C(F)(F)F)n3)c2)cn1 [Example 2.69, N-methyl-N~3~-[5-(3-methyl-5-{[4-(trifluoromethyl)pyrimidin-2-yl]amino}phenyl)pyrimidin-2-yl]-beta-alaninamide]"
8,> 7.00,"CC(=O)NCCCNc1ncc(-c2cc(C)cc(Nc3nccc(C(F)(F)F)n3)c2)cn1 [Example 2.71, N-(3-{[5-(3-methyl-5-{[4-(trifluoromethyl)pyrimidin-2-yl]amino}phenyl)pyrimidin-2-yl]amino}propyl)acetamide]"
9,> 7.00,"Cc1cc(Nc2nccc(C(F)(F)F)n2)cc(-c2cnc(N[C@@H]3CCC(=O)NC3)nc2)c1 [Example 2.72, (5R)-5-{[5-(3-methyl-5-{[4-(trifluoromethyl)pyrimidin-2-yl]amino}phenyl)pyrimidin-2-yl]amino}piperidin-2-one]"
10,> 7.00,"Cc1cc(Nc2nccc(C(F)(F)F)n2)cc(-c2cnc(N[C@H]3CCC(=O)NC3)nc2)c1 [Example 2.73, (5S)-5-{[5-(3-methyl-5-{[4-(trifluoromethyl)pyrimidin-2-yl]amino}phenyl)pyrimidin-2-yl]amino}piperidin-2-one]"
11,> 7.00,"Cc1cc(Nc2nccc(C(F)(F)F)n2)cc(-c2cnc(N3CCCC(O)C3)nc2)c1 (centres unmarked) [Example 2.75, 1-[5-(3-methyl-5-{[4-(trifluoromethyl)pyrimidin-2-yl]amino}phenyl)pyrimidin-2-yl]piperidin-3-ol]"
12,> 7.00,"Cc1cc(Nc2nccc(C(F)(F)F)n2)cc(-c2cnc(NC3(C(=O)O)CCCC3)nc2)c1 [Example 2.76, 1-{[5-(3-methyl-5-{[4-(trifluoromethyl)pyrimidin-2-yl]amino}phenyl)pyrimidin-2-yl]amino}cyclopentanecarboxylic acid]"
13,> 7.00,"Cc1cc(Nc2nccc(C(F)(F)F)n2)cc(-c2cnc(N3CCC(C(=O)O)CC3)nc2)c1 [Example 2.79, 1-[5-(3-methyl-5-{[4-(trifluoromethyl)pyrimidin-2-yl]amino}phenyl)pyrimidin-2-yl]piperidine-4-carboxylic acid]"
14,> 7.00,"Cc1cc(Nc2nccc(C(F)(F)F)n2)cc(-c2cnc(N(C)C(=O)CC#N)nc2)c1 [Example 2.80, 2-cyano-N-methyl-N-[5-(3-methyl-5-{[4-(trifluoromethyl)pyrimidin-2-yl]amino}phenyl)pyrimidin-2-yl]acetamide]"
15,6.00 to 7.00 and > 7.00,"Cc1cc(Nc2nccc(C(F)(F)F)n2)cc(-c2cnccn2)c1 [Example 3.2, N-(3-methyl-5-pyrazin-2-ylphenyl)-4-(trifluoromethyl)pyrimidin-2-amine]"

# Same assay, conditions: GST-hSYK 5 pM, ATP 25 μM, values in text, read-out: IC50
row,pIC50,Structure (SMILES)
1,7.29,"Cc1cc(Nc2nccc(C3CC3)n2)cc(-c2cnc(CCC(=O)O)nc2)c1 [Example 3.1, 3-(5-{3-[(4-cyclopropylpyrimidin-2-yl)amino]-5-methylphenyl}pyrimidin-2-yl)propanoic acid]"
